Data as given in patent US20020128214A1, “C-glucosyl ether lipids” (priority 2000, published 2002).

Tests used:
[1] = tested on: HS578T (breast); assay: Anti-proliferation, cell count after 48 h (Coulter Counter), HS578T; format: cell-based; conditions: treated 48 hours, extrapolated from FIGS. 1-9
Procedure: (§1) In this study, the anti-proliferative effects of each of four glucosyl ether lipid compounds were assessed on a panel of epithelial cancer cell lines. Two Cglucosyl ether lipids in accordance with the invention (compounds 4 and 17) were evaluated. In addition, a 2′-deoxy C-glucosyl ether lipid (compound 2) and a 2′-amino-2′-deoxy O-glucosyl ether lipid (compound 3), were evaluated. Thirty mM stock concentration of each of the four compounds were prepared in ethanol.
(§2) The experimental procedure used is detailed in Lu, X. and Arthur, G., Cancer Res., 52:2806-2812 (1992), the pertinent parts of which are incorporated by reference. Briefly, the epithelial cancer cell lines, namely SK-N-MC and SK-N-SH (neuroblastoma); DU145 (prostate); A498 (kidney); MDA-MB-468, MDA-MB-231, HS578t, MCF-7 and BT549 (breast), were subcultured into 24-well plates and allowed to grow to exponential phase. The medium was changed and replaced with one containing the glucosyl ether lipid compounds ([…]) in 10% FBS-supplemented medium. The cell numbers in representative wells were determined at the time of addition of the compounds. After 48 hours, the cells were detached with trypsin and the numbers were determined with a Coulter Counter. The increase in cell numbers were expressed as a percentage relative to those in wells without any drug (control).
(§3) See Erukulla, et al., J. Med. Chem., 39:1545-1548 (1996), the pertinent portions of which are incorporated herein by reference. Table 1 summarizes the comparative test results for 17, 3, 4, and the 2-deoxy analog of 4, (3S)-3-O-methyl-4-O-hexadecyl-2′-deoxy-β-D-glucopyranosylbutane (compound 2), which had been described in our earlier paper (Yang et al., Org. Lett., 1:2149-2151 (1999)). The method utilized was the same as that described in Example 2 above, and the Gl50 values were extrapolated from the results shown in FIGS. 1-9. In all nine examples, the close similarity in antiproliferative activity is striking.

[2] = tested on: DU145 (prostate); assay: Anti-proliferation, cell count after 48 h (Coulter Counter), DU145; format: cell-based; conditions: treated 48 hours, extrapolated from FIGS. 1-9
Procedure: as §1, §2, §3

[3] = tested on: MCF-7 (breast); assay: Anti-proliferation, cell count after 48 h (Coulter Counter), MCF-7; format: cell-based; conditions: treated 48 hours, extrapolated from FIGS. 1-9
Procedure: as §1, §2, §3

[4] = tested on: SK-N-SH (neuroblastoma); assay: Anti-proliferation, cell count after 48 h (Coulter Counter), SK-N-SH; format: cell-based; conditions: neuronal, treated 48 hours, extrapolated from FIGS. 1-9
Procedure: as §1, §2, §3

[5] = tested on: BT549 (breast); assay: Anti-proliferation, cell count after 48 h (Coulter Counter), BT549; format: cell-based; conditions: treated 48 hours, extrapolated from FIGS. 1-9
Procedure: as §1, §2, §3

[6] = tested on: panel of epithelial cancer cell lines; assay: Cancer cell proliferation study, whole panel (FIGS. 1-9); format: cell-based; conditions: nine cancer cell lines, 48 hours, 10% FBS-supplemented medium
Procedure: as §1, §2

[7] = tested on: SK-N-MC (neuroblastoma); assay: Anti-proliferation, cell count after 48 h (Coulter Counter), SK-N-MC; format: cell-based; conditions: neuronal, treated 48 hours, extrapolated from FIGS. 1-9
Procedure: as §1, §2, §3

[8] = comparison with compound 1; cited from earlier work
[9] = tested on: A498 (kidney); assay: Anti-proliferation, cell count after 48 h (Coulter Counter), A498; format: cell-based; conditions: treated 48 hours, extrapolated from FIGS. 1-9
Procedure: as §1, §2, §3

[10] = tested on: MDA-MB-468 (breast); assay: Anti-proliferation, cell count after 48 h (Coulter Counter), MDA-MB-468; format: cell-based; conditions: treated 48 hours, extrapolated from FIGS. 1-9
Procedure: as §1, §2, §3

[11] = tested on: MDA-MB-231 (breast); assay: Anti-proliferation, cell count after 48 h (Coulter Counter), MDA-MB-231; format: cell-based; conditions: treated 48 hours, extrapolated from FIGS. 1-9
Procedure: as §1, §2, §3

[12] = Storage stability; format: physicochemical; conditions: stored at 0° C.
Procedure: Deprotection and reduction of alkene 15 using H2 and 10% Pd/C afforded β-C-glycoside 16 in 85% yield. Of the several methods attempted for cleavage of the silyl group (e.g., Bu4NF, formic acid, acidic ionic exchange resin, and BF3, Et2O conditions), only BF3,Et2O in CH3CN gave a clean reaction (see King, et al., Tetrahedron Lett., 36:4563 (1995), the pertinent portions of which are incorporated herein by reference). The N-acetyl group was cleaved by using 2 N KOH/EtOH at reflux at 120° C. to afford the final product 4. [drawing 8]

| SMILES | GI50 [1] [µM] | GI50 [2] [µM] | GI50 [3] [µM] | GI50 [4] [µM] | GI50 [5] [µM] | anti-proliferative efficacy (increase in cell numbers relative to control) [6] | GI50 [7] [µM] | antiproliferative activity of C-glycoside relative to O-glycoside compound 1 [8] | GI50 [9] [µM] | GI50 [10] [µM] | GI50 [11] [µM] | storage time without decomposition [12] |
| --- | --- | --- | --- | --- | --- | --- | --- | --- | --- | --- | --- | --- |
| CCCCCCCCCCCCCCCCOC[C@H](CC[C@H]1C[C@@H](O)[C@H](O)[C@@H](CO)O1)OC [Compound 2, (3S)-3-O-methyl-4-O-hexadecyl-2′-deoxy-β-D-glucopyranosylbutane, reference compound] | > 15 | > 15 | > 15 | > 15 | > 15 | generally less efficacious than the other two glycoside ether lipids evaluated | > 15 | several fold weaker activity | > 15 | 11.4 | > 15 | – |
| CCCCCCCCCCCCCCCCOC[C@H](CC[C@@H]1O[C@H](CO)[C@@H](O)[C@H](O)[C@H]1N)OC [Compound 4, (3S)-3-O-methyl-4-O-hexadecyl-2′-amino-2′-deoxy-β-Dlucopyranosylbutane] | 5.1 | 7.9 | 8.1 | 4.1 | 8.9 | – | 4.1 | – | 8.5 | 9 | 9.1 | more than one month without any decomposition |
| CCCCCCCCCCCCCCCCOC[C@H](CC[C@@H]1O[C@H](CO)[C@@H](O)[C@H](O)[C@H]1NC(C)=O)OC [Compound 17, (3S)-3-O-Methyl-4-O-hexadecyl 2′-acetamido-2′-deoxy-β-D-glucopyranosylbutane] | 21 | > 15 | 25 | > 15 | 28.5 | generally less efficacious than the other two glycoside ether lipids evaluated | > 15 | – | > 15 | 34.4 | 40 | – |
